Reference: patent US20210290648A1, “Potentiation of B-Lactam Antibiotics and B-Lactam/B-Lactamase Inhibitor Combinations Against Multidrug and Extensively Drug-Resistant Pseudomonas Aeruginosa Using Non-Ribosomal Tobramycin-Cyclam Conjugates” (University of Manitoba, priority 2018, published 2021)

How the values were obtained:
PA 101885 = experiment: Checkerboard combination study / MIC; type: cell-based, Pseudomonas aeruginosa
PA 259 = experiment: Checkerboard combination study / MIC; type: cell-based, Pseudomonas aeruginosa
PA 260 = experiment: Checkerboard combination study / MIC; type: cell-based, Pseudomonas aeruginosa
PA 264 = experiment: Checkerboard combination study / MIC; type: cell-based, Pseudomonas aeruginosa
PA 91433 = experiment: Checkerboard combination study / MIC; type: cell-based, Pseudomonas aeruginosa; details: PA 91433
PA 101243 = experiment: Checkerboard combination study / MIC; type: cell-based, Pseudomonas aeruginosa; details: PA 101243
PAO200 = type: cell-based, Pseudomonas aeruginosa
From the text: (§1) PAO200 is a tnexA-rnexB-oprM deletion strain while PAO750 lacks five important RND pumps (McxAB-OprM, MexCD-OprJ, MexEF-OprN, Mex JK, and MexXY) and the outer membrane protein OpmH (46, 47). Some of these pumps are homologues of broad substrate specificities that extrude different classes of antimicrobial agents and confer resistance on P. aeruginosa (48).
(§2) Antimicrobial Susceptibility Assay. The in vitro antimicrobial activity of all compounds/antibiotics against a panel of bacteria was evaluated by microbroth dilution method in accordance with the Clinical and Laboratory Standards Institute (CLSI) guidelines. Overnight grown bacterial cultures were diluted in saline to achieve a 0.5 McFarland turbidity, followed by 1:50 dilution in Mueller-Hinton broth (MHB) for inoculation to a final concentration of approximately 5×10^5CFU/mL. The antimicrobial agents were 2-fold serially diluted in MHB in a 96-well plate and incubated at 37° C. with equal volumes of inoculum for 18 h. The lowest concentration that prevented the visible growth of bacteria was defined as the MIC for each antimicrobial agent. The broth with or without bacterial cells was used as positive or negative control, respectively.
(§3) Checkerboard Assay. Combination studies with different antibiotics were performed in 96-well plates as previously described (22). Briefly, the antibiotic of interest was serially diluted in MHB along the abscissa while the adjuvant (newly synthesized conjugates) was serially diluted in MHB along the ordinate. This creates a 10×7 matrix wherein each well consists of a combination of different antibiotic and adjuvant concentrations. Overnight grown bacterial cultures were diluted in saline to achieve a 0.5 McFarland turbidity, followed by 1:50 dilution in Mueller-Hinton broth (MHB) for inoculation to a final concentration of approximately 5×10^5CFU/mL. Equal volume of this bacterial culture was then added to each well and incubated at 37° C. for 18 h. After incubation, the plates were read on EMax® Plus microplate reader (Molecular Devices, Sunnyvale, Calif., USA) at 590 nm. MIC was recorded as wells with the lowest concentration of drugs with no bacterial growth. The fractional inhibitory concentration (FIC) for each antibiotic was calculated by dividing the MIC of the antibiotic in the presence of adjuvant by the MIC of the antibiotic alone. Similarly, the FIC of adjuvant was calculated by dividing the MIC of the adjuvant in the presence of antibiotic by the MIC of the adjuvant alone. FIC index is the sum of both FICs. FIC indices of <0.5 were deemed synergistic; 0.5-4, no interaction; and >4, antagonistic.

PAO750 = type: cell-based, Pseudomonas aeruginosa
From the text: as §1, §2, §3

[1] = test system: MDR/XDR P. aeruginosa clinical isolates; experiment: MIC and checkerboard, panel of clinical isolates; type: cell-based, Pseudomonas aeruginosa; details: antibiotic + compound 2 (8.7 μM); resistant P. aeruginosa isolates
[2] = test system: Galleria mellonella larvae; experiment: Galleria mellonella tolerability study
Protocol: In vitro and in vivo discordances have been observed in antimicrobial chemotherapy, thus, therapeutic efficacy may not necessarily be reliably extrapolated based on in vitro data alone. […] Colistin (100 mg/kg), an antibiotic well known for its toxicity towards eukaryotes, served as a positive control for this experiment while PBS served as negative control. […] Survivability was scored for a total of 4 days.
In vivo larvae-infection model. In vivo synergistic effects were determined using Galleria mellonella infection model, as previously described (20). Briefly, worms were purchased from The Worm Lady® Live Feeder (ON, Canada), stored in their natural habitat at 16° C., and used within 10 days of delivery. The worms (average weight of 250 mg) were used for tolerability and efficacy studies. Tolerability study was performed by injecting 10 μL of antimicrobial agents only at concentrations equivalent to 100 mg/kg or 200 mg/kg. The worms (ten in each group) were incubated at 37° C. and monitored for 96 h. […] Overnight grown culture of respective MDR P. aeruginosa isolate was standardized to 0.5 McFarland standard and diluted in PBS to a final concentration of […]. 10 μL of this solution (5 CFU) was injected into each worm and incubated for 3 h at 37° C. […] Worms treated with 10 μL PBS or high concentrations of test antibiotics served as negative and positive control, respectively. The worms were incubated at 37° C. in Petri dishes lined with filter paper and scored for survivability every 6 h for up to 48 h. This experiment was repeated to give a total of thirty worms (n=30) in each case. Survival data curves were plotted using Kaplan-Meier survival analysis.

[3] = test system: MDR PA101885-challenged larvae; experiment: Galleria mellonella infection model, efficacy; type: in vivo; details: after 24 h
Protocol: In vivo synergistic effects were determined using Galleria mellonella infection model, as previously described (20). Briefly, worms were purchased from The Worm Lady® Live Feeder (ON, Canada), stored in their natural habitat at 16° C., and used within 10 days of delivery. The worms (average weight of 250 mg) were used for tolerability and efficacy studies. Tolerability study was performed by injecting 10 μL of antimicrobial agents only at concentrations equivalent to 100 mg/kg or 200 mg/kg. The worms (ten in each group) were incubated at 37° C. and monitored for 96 h. For efficacy studies, the virulence and bacterial load required to kill 100% of the worms within 12-18 h (with no treatment) was first determined, which is approximately 5 CFU. Overnight grown culture of respective MDR P. aeruginosa isolate was standardized to 0.5 McFarland standard and diluted in PBS to a final concentration of 5×10^2CFU/mL. 10 μL of this solution (5 CFU) was injected into each worm and incubated for 3 h at 37° C. […] Worms treated with 10 μL PBS or high concentrations of test antibiotics served as negative and positive control, respectively. The worms were incubated at 37° C. in Petri dishes lined with filter paper and scored for survivability every 6 h for up to 48 h. This experiment was repeated to give a total of thirty worms (n=30) in each case. Survival data curves were plotted using Kaplan-Meier survival analysis.

[4] = MIC of antibiotic combined with compound 2

C[C@@H](O)[C@H]1C(=O)N2C(C(=O)O)=C(S[C@@H]3CN[C@H](C(=O)N(C)C)C3)[C@H](C)[C@H]12 [Meropenem]
MICCombination (antibiotic) (PA 101885; [4]): 0.5 µg/mL
FICI (PA 101885; antibiotic + compound 2): <0.16
MICAntibiotic (PA 101885; antibiotic alone): 4 µg/mL
FICAntibiotic (PA 101885; with compound 2): 0.125
MICCombination (antibiotic) (PA 259; [4]): 256 µg/mL
FICI (PA 259; antibiotic + compound 2): <0.31
MICAntibiotic (PA 259; antibiotic alone): 1024 µg/mL
FICAntibiotic (PA 259; with compound 2): 0.250
MICCombination (antibiotic) (PA 260; [4]): 1 µg/mL
FICI (PA 260; antibiotic + compound 2): <0.16
MICAntibiotic (PA 260; antibiotic alone): 8 µg/mL
FICAntibiotic (PA 260; with compound 2): 0.125
MICCombination (antibiotic) (PA 264; [4]): 2 µg/mL
FICI (PA 264; antibiotic + compound 2): <0.05
MICAntibiotic (PA 264; antibiotic alone): 64 µg/mL
FICAntibiotic (PA 264; with compound 2): 0.0313
MICCombination (antibiotic) (PA 91433; [4]): 0.25 µg/mL
FICI (PA 91433; antibiotic + compound 2): <0.03
MICAntibiotic (PA 91433; antibiotic alone): 16 µg/mL
FICAntibiotic (PA 91433; with compound 2): 0.016
MICCombination (antibiotic) (PA 101243; [4]): 2 µg/mL
FICI (PA 101243; antibiotic + compound 2): <0.25
MICAntibiotic (PA 101243; antibiotic alone): 8 µg/mL
FICAntibiotic (PA 101243; with compound 2): 0.250
MIC of antibiotic + Compound 2 in PAO200 (PAO200; + compound 2 ≤8.7 μM, PAO200): 0.063 µg/mL
fold change of MIC + Compound 2 in PAO200 (PAO200; + compound 2 ≤8.7 μM, PAO200): 4
MIC of antibiotic alone in PAO200 (PAO200; antibiotic alone, PAO200 efflux-deficient): 0.25 µg/mL
MIC of antibiotic + Compound 2 in PAO750 (PAO750; + compound 2 ≤8.7 μM, PAO750): 0.25 µg/mL
fold change of MIC + Compound 2 in PAO750 (PAO750; + compound 2 ≤8.7 μM, PAO750): 4
MIC of antibiotic alone in PAO750 (PAO750; antibiotic alone, PAO750 efflux-deficient): 1 µg/mL
resistant isolates reaching CLSI clinical breakpoint [1]: eight out of nine
survival of larvae ([2]; 100 mg/kg and 200 mg/kg injected alone, after 48 h): 100%
dose tolerated by larvae ([2]; Galleria mellonella, in vivo, 96 h): up to 200 mg/kg
mortality of larvae, monotherapy ([3]; aztreonam […], meropenem 37.5 mg/kg, compound 2 100 mg/kg): 100%
survival of larvae ([3]; meropenem 37.5 mg/kg single dose): 0%
survival of larvae ([3]; meropenem 50 mg/kg single dose): 80%
